The record followed here is ChEMBL document CHEMBL1201862, “PubChem BioAssay data set” (2004).

One assay addresses T1, Leucine aminopeptidase (Plasmodium falciparum 3D7, UniProt Q8IL11).
T1 sequence (Q8IL11 whole entry): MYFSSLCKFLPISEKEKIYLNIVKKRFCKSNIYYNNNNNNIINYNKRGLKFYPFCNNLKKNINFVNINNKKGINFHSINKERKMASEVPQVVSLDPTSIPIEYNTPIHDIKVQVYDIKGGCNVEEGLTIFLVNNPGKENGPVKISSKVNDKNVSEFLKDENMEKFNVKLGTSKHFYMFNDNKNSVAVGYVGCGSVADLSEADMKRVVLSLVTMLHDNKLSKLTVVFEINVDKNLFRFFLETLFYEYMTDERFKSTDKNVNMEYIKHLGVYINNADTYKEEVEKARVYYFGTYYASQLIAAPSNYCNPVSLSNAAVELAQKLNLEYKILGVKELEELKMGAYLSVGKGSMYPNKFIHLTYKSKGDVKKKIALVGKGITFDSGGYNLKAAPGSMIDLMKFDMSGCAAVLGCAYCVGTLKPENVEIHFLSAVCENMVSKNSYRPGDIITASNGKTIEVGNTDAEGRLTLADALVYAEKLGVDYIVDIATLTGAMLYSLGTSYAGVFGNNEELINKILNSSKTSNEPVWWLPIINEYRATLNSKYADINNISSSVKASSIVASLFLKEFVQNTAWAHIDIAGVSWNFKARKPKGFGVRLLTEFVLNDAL
As to the kind of experiment: P. falciparum M17LAP inhibitors, primary screen, biochemical, fluorogenic H-Leu-NHMec substrate, 1536-well (AID 1619). The assay is classed as functional.

Assay [1] concerns the target Glyceraldehyde-3-phosphate dehydrogenase (Homo sapiens, UniProt P04406).
The target in assay [2] is Luciferin 4-monooxygenase (Photinus pyralis, UniProt P08659). The experiment in a line: Counter Screen for Luciferase-based Assay Positives. [Related pubchem assays: 620, 618, 411 ]. Background: Counterscreens check selectivity or assay interference.
Chain of Luciferin 4-monooxygenase (P08659 whole entry): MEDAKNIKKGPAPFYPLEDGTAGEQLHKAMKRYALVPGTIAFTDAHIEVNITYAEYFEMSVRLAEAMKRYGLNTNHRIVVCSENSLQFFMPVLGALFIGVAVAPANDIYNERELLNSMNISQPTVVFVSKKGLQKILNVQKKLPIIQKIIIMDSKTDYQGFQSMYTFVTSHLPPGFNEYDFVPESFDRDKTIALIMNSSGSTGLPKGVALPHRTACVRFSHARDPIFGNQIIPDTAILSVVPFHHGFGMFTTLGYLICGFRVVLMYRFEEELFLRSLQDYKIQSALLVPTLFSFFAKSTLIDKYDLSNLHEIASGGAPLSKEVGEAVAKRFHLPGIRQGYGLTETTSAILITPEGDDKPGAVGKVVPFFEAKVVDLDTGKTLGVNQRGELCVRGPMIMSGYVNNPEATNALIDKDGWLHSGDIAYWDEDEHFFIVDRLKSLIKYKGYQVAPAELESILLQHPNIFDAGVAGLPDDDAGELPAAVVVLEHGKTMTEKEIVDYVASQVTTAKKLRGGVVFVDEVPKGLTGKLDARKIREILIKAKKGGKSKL
Assay [3] addresses T2, Sentrin-specific protease 7 (Homo sapiens, UniProt Q9BQF6).
T2 sequence (Q9BQF6 whole entry): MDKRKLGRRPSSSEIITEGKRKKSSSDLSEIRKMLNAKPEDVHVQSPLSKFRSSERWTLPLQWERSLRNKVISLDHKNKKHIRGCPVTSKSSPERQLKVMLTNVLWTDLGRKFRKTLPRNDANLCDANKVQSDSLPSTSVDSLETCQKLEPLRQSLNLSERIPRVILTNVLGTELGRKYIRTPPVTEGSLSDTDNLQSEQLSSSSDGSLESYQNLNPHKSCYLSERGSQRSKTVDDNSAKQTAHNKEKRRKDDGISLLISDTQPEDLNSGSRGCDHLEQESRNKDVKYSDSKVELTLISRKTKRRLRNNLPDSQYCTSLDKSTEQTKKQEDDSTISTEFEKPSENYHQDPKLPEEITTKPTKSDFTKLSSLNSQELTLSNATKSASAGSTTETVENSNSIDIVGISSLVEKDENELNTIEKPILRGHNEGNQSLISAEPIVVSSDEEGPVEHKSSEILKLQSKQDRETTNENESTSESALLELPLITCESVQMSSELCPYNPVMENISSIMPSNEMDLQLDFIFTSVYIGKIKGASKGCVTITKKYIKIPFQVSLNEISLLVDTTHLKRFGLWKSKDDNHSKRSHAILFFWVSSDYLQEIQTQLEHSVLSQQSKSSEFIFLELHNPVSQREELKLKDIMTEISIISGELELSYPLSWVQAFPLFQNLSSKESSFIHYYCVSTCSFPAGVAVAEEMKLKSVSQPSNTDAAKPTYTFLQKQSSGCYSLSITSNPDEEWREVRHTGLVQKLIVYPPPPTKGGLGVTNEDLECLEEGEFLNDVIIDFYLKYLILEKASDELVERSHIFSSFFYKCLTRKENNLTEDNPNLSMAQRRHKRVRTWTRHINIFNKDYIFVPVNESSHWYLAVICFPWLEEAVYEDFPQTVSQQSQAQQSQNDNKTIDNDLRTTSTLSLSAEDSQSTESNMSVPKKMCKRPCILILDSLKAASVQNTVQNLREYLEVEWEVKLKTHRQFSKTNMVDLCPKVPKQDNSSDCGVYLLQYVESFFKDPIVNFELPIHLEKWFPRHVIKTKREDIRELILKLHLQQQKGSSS
The assay is classed as functional.

Assay [4] concerns A-375. As to the kind of experiment: MITF: Counter assay: A375 proliferation Measured in Cell-Based System Using Plate Reader - 2084-03_Inhibitor_Dose_DryPowder_Activity. [Related pubchem assays (depositor defined):AID488944]. The assay is classed as functional. To be noted: Homo sapiens.
In assay [5] the test system is A-375. As to the kind of experiment: proliferation inhibition in MITF-low A375 cells – cell-based, cherry-pick samples, set 2, counter-screen for MITF modulator project, dose response (AID 540335). The assay is classed as functional. The following applies: Homo sapiens.
The test system of the next assay is HT-1080. The experiment in a line: HT1080 cell viability loss – fluorescence readout (AID 620). The assay is classed as functional, cell-based. The following applies: Homo sapiens.
A further assay deals with T3, Caspase-3 (Homo sapiens, UniProt P42574).
T3 sequence (P42574 whole entry): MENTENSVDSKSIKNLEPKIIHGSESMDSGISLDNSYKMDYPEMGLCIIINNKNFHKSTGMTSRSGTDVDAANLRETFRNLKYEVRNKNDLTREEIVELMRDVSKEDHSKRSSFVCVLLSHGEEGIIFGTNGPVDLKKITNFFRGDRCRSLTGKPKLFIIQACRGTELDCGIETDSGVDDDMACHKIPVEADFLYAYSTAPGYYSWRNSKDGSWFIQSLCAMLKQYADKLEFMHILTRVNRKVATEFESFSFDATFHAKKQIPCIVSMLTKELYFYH
The assay is classed as functional.

Active and inactive are the calls of the source. Some results are limits rather than exact numbers.

Chain of Glyceraldehyde-3-phosphate dehydrogenase (P04406 whole entry): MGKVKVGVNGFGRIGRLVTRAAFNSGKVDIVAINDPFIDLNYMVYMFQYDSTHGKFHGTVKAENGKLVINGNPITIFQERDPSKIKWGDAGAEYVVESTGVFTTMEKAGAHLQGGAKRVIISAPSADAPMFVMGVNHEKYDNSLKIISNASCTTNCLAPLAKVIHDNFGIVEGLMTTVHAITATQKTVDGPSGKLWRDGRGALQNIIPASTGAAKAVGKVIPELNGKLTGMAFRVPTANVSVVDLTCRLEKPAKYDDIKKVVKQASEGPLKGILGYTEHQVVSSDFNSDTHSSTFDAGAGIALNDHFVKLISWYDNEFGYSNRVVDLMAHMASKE

As to `N#Cc1c(NC(=O)CSc2nc[nH]n2)sc2c1CCCCC2`, the IC50 at Leucine aminopeptidase is < 1 µM (active); in assay [1], > 100 µM (not active); in assay [3], 5.65 µM (active); at Caspase-3, 45.2 µM (active). In addition, the EC50 is 50.9 µM (active) in assay [2] and > 50 µM (not active) in the assay with HT-1080. Further, the AC50 in the assay on A-375 [4] and in the assay on A-375 [5] was > 35 µM (active) each time.

Broadly, the IC50 is the concentration that gives 50% inhibition. Broadly, the EC50 is the concentration that produces a half-maximal response. As usually defined, the AC50 is the concentration at which the activity in the assay is half-maximal.
